Structures are written as SMILES.

Data set [1] concerns human washed platelets. Briefly: Platelet aggregation assay (Chrono-Log aggregometer). The class given is cell-based. As to conditions: for IC50: Homo sapiens, Platelet, 10 min, 10 min incubation at 37°C. The procedure:
(§1) Blood was collected from a median cubital vein using a 3.8% sodium citrate anticoagulation tube with a 1:9 dilution ratio. The platelets were washed using a previously described method with slight modification ([Babur et al., 2020]; [Uphaus et al., 2022]). The blood was centrifuged at room temperature at 300 × g for 10 min to separate platelet-rich plasma (PRP). PRP was added to 50 ng/mL of PGE1 and 5 mM EDTA, centrifuged at 2,000 × g for 2 min at room temperature, and the platelet precipitate was obtained after discarding the supernatant. The modified HEPES-Tyrode’s buffer (20 mM 4-(2-Hydroxyethyl)-1-piperazine ethane sulfonic acid [HEPES], pH 7.3, 129 mM NaCl, 2.9 mM KCl, 12 mM NaHCO3, 0.34 mM Na2HPO4, 20 mM HEPES, 5 mM D-Glucose, 1 mM MgCl2) was used to resuspend the platelets, added with 50 ng/mL PGE1 and 5 mM EDTA, and the platelets were washed by centrifugation at 2,000 ×g for 2 min at room temperature. The washed platelets (WP) were resuspended using modified HEPES-Tyrode’s buffer, and the platelet count was adjusted to 150–200 × 10^9/L.
(§2) Platelet aggregation and ATP release were detected using the Chrono-Log platelet aggregation instrument (Chrono-Log Corp., Havertown, Pennsylvania, United States), as previously reported ([Babur et al., 2020]). […] In addition, 1 mM CaCl2 and different platelet activators (ADP, collagen, and thrombin; Chrono-Log Corp., Havertown, Pennsylvania, United States; U46619, from Sigma, St. Louis, MO, United States; convulxin, sc-202554 from Santa Cruz Biotechnology, Santa Cruz, CA, United States) were added to each group before the start of the aggregation assay. For the ATP release experiments, the platelets were incubated with 50 ng/mL luciferin and D-luciferase (Cat No. 395; Chrono-Log Corp.) for 2 min before the addition of activators. The platelet aggregation and ATP release curves were traced during experiments.

Data set [2] concerns human washed platelets. Briefly: Platelet ATP release assay (luciferin/luciferase). The class given is cell-based. As to conditions: for IC50: Homo sapiens, Platelet. The procedure:
as §1, §2

Data set [3] deals with human washed platelets. In words: Platelet superoxide anion and H2O2 release (DHE, Amplex Red). The class given is cell-based. As to conditions: convulxin 5 ng/mL; luteolin 25 μM. The procedure:
A ROS probe via a fluorescent enzyme marker was added. O2 ^− and H2O2 were measured using 2 μM Amplex Red (Cat No. ST010; Beyotime Institute of Biotechnology, Shanghai, China) or 2 μM Dihydroethidium (DHE, Cat No. S0063; Beyotime Institute of Biotechnology, Shanghai, China). O2 ^− and H2O2 were analyzed using a Fluoroskan Ascent fluorometer (Thermo Fisher, Waltham, Massachusetts, United States).

The subject of data set [4] is human washed platelets. In words: MDA, SOD and GPx activity in platelet lysate supernatant. The class given is cell-based. As to conditions: convulxin- and collagen-induced. On the procedure: MDA, SOD, GPx, and NADPH oxidase activity were measured as previously described ([Krotz et al., 2002]; [Paul et al., 2019]; [Pan et al., 2021]). After incubation and activation, the reaction was stopped by adding 10 mM EGTA. The platelets were pelleted by centrifugation at 20,000 × g for 10 min at 4°C and resuspended in Tyrode’s buffer with 0.1% phosphatase and protease inhibitors (Cat No. 04906837001, Roche Applied Science, Penzberg, Germany; Cat No. P-8340, Sigma, St. Louis, MO, United States). The platelets were disrupted by passing them 10 times through a 29-gauge needle, followed by centrifugation at 2000 × g for 10 min at 4°C to separate the supernatant and precipitate. The detection of MDA, SOD, and GPx in the supernatant was performed according to the kit’s instructions for SOD (Cat No. BC0170, Solarbio Life Science, Beijing, China), MDA (Cat No. S0131S, Beyotime Institute of Biotechnology, Shanghai, China) and GPx (Cat No. S0056, Beyotime Institute of Biotechnology, Shanghai, China). In order to determine NADPH oxidase (NOX) activity, platelet lysate (12.5 μg) was incubated with 10 µM lucigenin and 0.5 mM NADPH at 37°C in the dark. The absorbance values were detected at 450 nm using a spectrophotometer Multiskan FC (ThermoFisher Scientific Inc., Waltham, MA, United States). Protein content was determined by the Bradford method.

For the next data set, the system named is integrin αIIbβ3. In words: PAC-1 expression (integrin αIIbβ3 activation) by flow cytometry. The class given is cell-based, human. The following applies: collagen- and convulxin-induced. The procedure:
Platelet membrane protein expression experiments were performed as previously reported, with slight modifications ([Babur et al., 2020]). WPs were added with 10 μM indomethacin to prevent platelet aggregation. After incubation, the WPs were activated by adding 1 mM calcium chloride and agonists to platelets at 37°C. After 30 min, 10 μL of WPs was taken, and the reaction was terminated by adding 90 μL Tyrode’s buffer and 10 mM EDTA. PerCP-coupled anti-CD61 antibody (1:50; Cat No. 336410; Biolegend, San Diego, CA, United States), Alexa Fluor® 647 labeled PAC-1 (1:50; Cat No. 362806; BioLegend), and FITC-coupled anti-CD62p antibody (1:50; Cat No. 555523; BD Biosciences, San Diego, CA, United States) were incubated with platelets for 30 min at 37°C in the dark. The platelet surface fluorescence intensity was analyzed using a FacsCanto II flow cytometer (BD Biosciences, San Diego, CA, United States) to analyze the expression of platelet surface membrane proteins. Cell membrane protein expression data were analyzed using FlowJo software V10.

Another data set in a line: Tail bleeding in mice. The class given is in vivo, C57BL/6 mice. As to conditions: luteolin 35 μM/kg or aspirin i.p., 30 min after injection; vs DMSO. On the procedure: The tail break hemorrhage experiment in mice was performed as previously reported, with slight modifications ([Liu et al., 2012]). […] Before the experiment, the mouse tails were immersed in saline for 3 min at 37°C. Then, 30 min after injection, the tails were quickly cut off using a surgical knife blade and placed in saline at 37°C. The cutting site was 5 mm from the end of the tail tip. The bleeding time of the broken tails was observed and recorded.

Data set [5] concerns thrombosis and infarct area. More on the design: method as in Liu et al., 2022. The following applies: rats; gavage for 7 days at 20 mg/kg/day; ref Liu et al., 2022; cited from earlier work.

With `O=c1cc(-c2ccc(O)c(O)c2)oc2cc(O)cc(O)c12` [Luteolin], the “effect on platelet aggregation” value in the data set with human washed platelets [1] (25 μM luteolin, ADP (5 μM)-induced) is “no significant effect”; with human washed platelets [1] (25 μM luteolin, U46619 (3 μM)-induced), “no significant effect”; with human washed platelets [1] (25 μM luteolin, thrombin (0.05 U/mL)-induced), “no significant effect”; with human washed platelets [1] (100 μM luteolin, U46619-induced) it was “significantly inhibited”. Besides, the IC50 with human washed platelets [1] (read-out: IC50, inhibition of platelet aggregation, convulxin (5 ng/mL)-induced) was determined as 8.66 µM; with human washed platelets [1] (collagen (10 μg/mL)-induced, read-out: IC50, inhibition of platelet aggregation), 4.81 µM; in the data set with human washed platelets [2] (read-out: IC50, inhibition of ATP release, convulxin-induced), 2370 nM; in the data set with human washed platelets [2] (collagen-induced, read-out: IC50, inhibition of ATP release), 2670 nM. For the same compound, in the data set on human washed platelets [2] (convulxin- and collagen-induced, concentration-dependent), the “effect on platelet ATP release” value is listed as “significantly inhibited”. For the same compound, the “platelet hydrogen peroxide release” value in the data set with human washed platelets [3] was “inhibited”. The “platelet superoxide anion release” value in the data set with human washed platelets [3] is on record as “inhibited”. Moreover, the GPx activity result with human washed platelets [4] was “promoted”. The MDA activity result in the data set with human washed platelets [4] is reported as “inhibited”. In addition, the SOD activity result with human washed platelets [4] is “promoted”. The “PAC-1 expression (integrin αIIbβ3 inside-out activation)” value in the data set on integrin αIIbβ3 was “dose-dependently inhibited”. Further, the tail bleeding time entry in the data set “Tail bleeding in mice” is recorded as “no significant prolonging effect”. For the same compound, the “thrombosis and infarct area” value in data set [5] was “significantly reduce”.

Values taken from PMC10644720 (Frontiers in Pharmacology, 2023).
